Read-outs that look alike come from different tables or passages of the source.
Columns and labels:
[1] = set-up: method as in PMID 28847206; conditions: added to high‐intensity statin therapy, compared to placebo; cited from earlier work
[2] = pH 7.4; cited from earlier work
[3] = cited from earlier work
[4] = cited from earlier work; remark: listed apart in the source
[5] = cited from earlier work; remark: listed apart in the source
[6] = absorption, metabolism and excretion study of a single 10 mg dose of 14C-obicetrapib (NCT02408055, TA‐8995‐07); type: in vivo, humans; conditions: male, human, in vivo
Procedure: Figure 2 illustrates the obicetrapib (TA‐8995) M1 detected above the LLOQ (>1% radioactivity) in human plasma expressed as the percent radioactivity profiled. A study (NCT02408055) was conducted in healthy male participants (n = 6) to assess the absorption, metabolism, and excretion of a single dose of 10 mg of ^14C‐obicetrapib (TA‐8995‐07 CSR, NewAmsterdam Pharma). One of the objectives of the study was to determine the chemical structure of ^14C‐obicetrapib M1 that represent ≥10% of total radioactivity in plasma. The participants received 10 mL ^14C‐obicetrapib oral suspension, containing 10 mg and 100 μCi of ^14C‐obicetrapib in the fasted state. Clinical samples for analysis were selected based upon the levels of radioactivity present as determined by liquid scintillation counting and were stored at below −50°C (nominally −80°C) when not in use. Plasma samples from the participants were sequentially extracted with acetonitrile at five time points. The resulting extracts were concentrated by evaporation and reconstituted in mobile phase HPLC prior to analysis by radio‐HPLC. All samples were analyzed by liquid scintillation counting to evaluate the recovery of radioactivity. The profiles of the radiolabeled components in each sample of plasma were determined by HPLC analysis with off‐line radio‐detection. Selected samples from each matrix were then further analyzed by high‐resolution mass spectrometry to investigate the identity of M1. In plasma, the predominant metabolite component was unchanged obicetrapib (~79% of total drug‐related exposure), and the most abundant plasma M1 were M1 and P9 of which each accounted for ~4% of total exposure (Figure 2). No significant differences in the metabolite profiles were observed across the samples obtained from the six participants (TA‐8995‐07 CSR, NewAmsterdam Pharma).

percent radioactivity profiled in human plasma [6] | Structure (SMILES) | cLogDpH7.4 [2] | PSA [4] [Å^2] | accumulation in adipose tissue ([3]; human, in vivo) | increase of C max by a high‐fat meal compared to fasting conditions [5] [fold] | other results
 | COc1cc(F)c(C(C)C)cc1-c1ccc(C(F)(F)F)cc1CN1C(=O)O[C@H](c2cc(C(F)(F)F)cc(C(F)(F)F)c2)[C@@H]1C [anacetrapib, Anacetrapib] | 9.2 | 39 |  |  | reduced risk of major adverse coronary events [1]: 9%; time detected in plasma after the last treatment dose ([3]; 76‐week DEFINE trial): up to 4 years; half‐life ([3]; human, in vivo): up to 80 h; accumulation in adipose tissue ([3]; subcutaneous adipose biopsy measurements, compared to plasma levels): accumulated in adipose tissue at much higher concentrations and for a prolonged period; increase in plasma levels, fed versus fasted state ([5]; in vivo): 2-8 fold; increase of AUC (0‐∞) by a high‐fat meal compared to a fasting state ([5]; in vivo): 6 fold; increase of C max by a high‐fat meal compared to a fasting state ([5]; in vivo): 8 fold
 | Cc1cc(C)c2c(c1)[C@@H](N(Cc1cc(C(F)(F)F)cc(C(F)(F)F)c1)c1nnn(C)n1)CCCN2C[C@H]1CC[C@H](C(=O)O)CC1 [evacetrapib, Evacetrapib] | 7.9 | 87 | no accumulation in adipose tissue | 1.5 | t 1/2 ([3]; once daily doses between 10 and 600 mg for up to 15 days): 40 h; increase of AUC(τ) by a high‐fat meal compared to fasting conditions [5]: 1.4 fold
 | CCOC(=O)N1c2ccc(C(F)(F)F)cc2[C@@H](N(Cc2cc(C(F)(F)F)cc(C(F)(F)F)c2)C(=O)OC)C[C@H]1CC [torcetrapib, Torcetrapib] | 7.6 | 59 | no accumulation in adipose tissue |  | t 1/2 ([3]; single ascending dose study): 211 h
approx. 4% | O=C(O)COc1cnc(NCc2cc(C(F)(F)F)cc(C(F)(F)F)c2)nc1 [P9] |  |  |  |  | 
approx. 4% | CCC1CC(N(Cc2cc(C(F)(F)F)cc(C(F)(F)F)c2)c2ncc(OCCCC(=O)O)cn2)c2cc(C(F)(F)F)ccc2N1 (stereo not drawn) [M1] |  |  |  |  | 
 | CCC(CC)CC1(C(=O)Nc2ccccc2SC(=O)C(C)C)CCCCC1 [dalcetrapib, Dalcetrapib] | 7.2 | 46 |  | 2.3 | t 1/2 ([3]; once daily doses between 300 and 1200 mg, short‐term investigations): 30 h; accumulation in adipose tissue ([3]; other CETP inhibitors): no accumulation in adipose tissue; increase of AUC(0–36) by a high‐fat meal compared to fasting conditions [5]: 1.6 fold
